We go through eleven compounds from US11819532B2, “Peptide macrocycles against Acinetobacter baumannii” (Hoffmann-La Roche Inc., priority 2018, dated 2023).

Data set [1] has as its system A. baumannii ATCC 17978. Put plainly: 50% growth inhibitory concentration (IC50) determination, antimicrobial susceptibility testing. In kind it is cell-based. As to conditions: Acinetobacter baumannii. Here is the method:
The in vitro antimicrobial activity of the compounds was alternatively determined according to the following procedure:
The assay used a 10-points Iso-Sensitest broth medium to measure quantitatively the in vitro activity of the compounds against A. baumannii ATCC 17978.
Stock compounds in DMSO were serially twofold diluted (e.g. range from 50 to 0.097 μM or from 10 to 0.020 μM final concentration) in 384 wells microtiter plates and inoculated with 49 μl the bacterial suspension in Iso-Sensitest medium to have a final cell concentration of ˜5×10^(5)CFU/ml in a final volume/well of 50 μl/well. Microtiter plates were incubated at 35±2° C.
Bacterial cell growth was determined with the measurement of optical density at X=600 nm each 20 minutes over a time course of 16h.
Growth inhibition was calculated during the logarithmic growth of the bacterial cells with determination of the concentration inhibiting 50% (IC50) and 90% (IC90) of the growth.
Table 1 provides the 50% growth inhibitory concentrations (IC50) in micromoles per liter of the compounds of present invention obtained against the A. baumannii strain ATCC17978.

Data set [2] can be described thus: Plasma precipitation screening assay. Further details: species or system rat. How it is done:
An aliquot (10 μL) of compound solubilized in physiological buffer or the formulation used for its parenteral administration in vivo, and of various dilutions thereof in phosphate-buffered saline (PBS), is mixed 1:1 with rat plasma. After 10 minutes incubation at room temperature the UV-absorption of the mixtures is measured and compared to absorption of blank plasma or plasma with vehicle solution. A significant (often concentration dependent) increase of absorption is indicative of precipitation.
Whole blood is obtained from WISTAR rats (Hanbrl:Wist SPF) under terminal anaesthesia after intraperitoneal injection of a pentobarbital solution (from animals euthanized for collection of tissue for other experimental purposes). Blood is collected in 1.2 mL of Heparin S-Monovette tubes (Sarstedt) for the preparation of heparin plasma.
The tubes are then centrifuged for 5 min at 5200 g at room temperature to isolate the plasma supernatant. The plasma is used in the assay within 48 h of collection (storage at 4° C.).
Test compounds are received as powder or formulated. When obtained as powder, they are solubilized in 0.9% aq. sodium chloride solution in order to get the highest indicated concentration to be tested. The solubility is visually checked and the solutions are filtered using 0.45 PVDF hydrophilic filters (Durapore®, Darmstadt, Germany), to remove possible solid impurities. pH of this initial solution might be measured in the filtered stock solutions, before proceeding to prepare a compound dilution series in PBS (1:1-dilution steps).
The assay is conducted in 384-well plates. 10 μL of rat plasma is added to 10 μL of the various compound solutions. The assay is performed in duplicate. 10 μL of vehicle (0.9% aq. sodium chloride solution, PBS) added to the plasma is used as a negative control. The absorption is measured at 362 nm.
Raw data obtained are absorbance data. The difference between absorbance of the sample and mean absorbance of vehicle is calculated. The minimal effect concentration (MEC) is defined as the lowest concentration giving an absorbance difference, OD362≥0.05.

The mark [3] stands for this setting: 50% growth inhibition, A. baumannii strain ATCC17978, Iso-Sensitest medium, read-out: IC50 ATCC17978.
[4] abbreviates: Wistar (Hanbrl:Wist SPF), rat, 10 min.
The mark [5] stands for this setting: ATCC17978, read-out: IC50 ATCC17978.
Where [6] appears, read: minimal effect concentration, lowest concentration giving absorbance difference OD362≥0.05, rat plasma 1:1, 10 minutes room temperature.

Each structure is given as a SMILES string. Like-named read-outs stand apart in the source and are kept apart here.

For `CN1C(=O)[C@H](CCCCN)NC(=O)[C@H](CCCN)NCc2nccnc2Sc2c(Cl)ccc(-c3ccc(C(=O)O)c(F)c3)c2CNC(=O)[C@@H]1Cc1c[nH]c2ccccc12` [Example 8.02, 4-[(11S,14S,17S)-14-(4-aminobutyl)-11-(3-aminopropyl)-25-chloro-17-(1H-indo1-3-ylmethyl)-16-methyl-12,15,18-trioxo-2-thia-4,7,10,13,16,19-hexazatricyclo[19.4.0.03,8]pentacosa-1(21),3,5,7,22,24-hexaen-22-yl]-2-fluoro-benzoic acid], the 50% inhibitory concentration (IC50) (in general, the concentration at which inhibition is half-maximal) in data set [1] (setting [3]) turned out to be 0.019 µM. Moreover, the “Plasma precipitation MEC” value in data set [2] (setting [4]) amounted to 380 µmol/L.

As for `CN1C(=O)[C@H](CCCCN)NC(=O)[C@H](CCCN)NCc2cccnc2Sc2c(F)ccc(-c3ccc(C(=O)O)cc3)c2CNC(=O)[C@@H]1Cc1c[nH]c2ccccc12` [Example 9.00, 4-[(1 S,14S,17S)-14-(4-aminobutyl)-1-(3-aminopropyl)-25-fluoro-17-(1H-indol-3-ylmethyl)-16-methyl-12,15,18-trioxo-2-thia-4,10,13,16,19-pentazatricyclo[19.4.0.03,8]pentacosa-1(25), 3(8), 4,6,21,23-hexaen-22-yl]benzoic Acid], in data set [1] (setting [3]), the half-maximal inhibitory concentration (IC50) is 0.02 µM. Also, in data set [2] (setting [4]), the “Plasma precipitation MEC” value turned out to be 870 µmol/L.

Turning to `CN1C(=O)[C@H](CCCCN)NC(=O)[C@H](CCCN)NCc2cccnc2Sc2c(F)ccc(-c3ccn(CC(=O)O)c(=O)c3)c2CNC(=O)[C@@H]1Cc1c[nH]c2ccccc12` [Example 9.01, 2-[4-[(11S,14S,17S)-14-(4-Aminobutyl)-11-(3-aminopropyl)-25-fluoro-17-(1H-indo1-3-ylmethyl)-16-methyl-12,15,18-trioxo-2-thia-4,10,13,16,19-pentazatricyclo[19.4.0.03,8]pentacosa-1(25),3(8),4,6,21,23-hexaen-22-yl]-2-oxo-1-pyridyl]acetic acid], the IC50 in data set [1] (setting [3]) turned out to be 0.081 µM. For the same compound, the “Plasma precipitation MEC” value in data set [2] (setting [4]) is greater than 1690 µmol/L.

`Cc1ccc(-c2ccc(C(=O)O)cc2)c2c1Sc1ncccc1CN[C@@H](CCCN)C(=O)N[C@@H](CCCCN)C(=O)N(C)[C@@H](Cc1c[nH]c3ccccc13)C(=O)NC2` [Example 10.00, 4-[(11S,14S,17S)-14-(4-Aminobutyl)-1-(3-aminopropyl)-17-(1H-indol-3-ylmethyl)-16,25-dimethyl-12,15,18-trioxo-2-thia-4,10,13,16,19-pentazatricyclo[19.4.0.03,8]pentacosa-1(25), 3(8), 4,6,21,23-hexaen-22-yl]benzoic Acid]: the IC50 in data set [1] (setting [3]) stood at 0.024 µM. Further, the “Plasma precipitation MEC” value in data set [2] (setting [4]) was 870 µmol/L.

Consider `Cc1ccc(-c2ccn(CC(=O)O)c(=O)c2)c2c1Sc1ncccc1CN[C@@H](CCCN)C(=O)N[C@@H](CCCCN)C(=O)N(C)[C@@H](Cc1c[nH]c3ccccc13)C(=O)NC2` [Example 10.01, 2-[4-[(1S,4S,17S)-14-(4-Aminobutyl)-11-(3-aminopropyl)-17-(1H-indol-3-ylmethyl)-16,25-dimethyl-12,15,18-trioxo-2-thia-4,10,13,16,19-pentazatricyclo[19.4.0.03,8]pentacosa-1(25), 3(8), 4,6,21,23-hexaen-22-yl]-2-oxo-1-pyridyl]acetic Acid], for which the concentration for half-maximal inhibition (IC50) in data set [1] (setting [3]) was found to be 0.078 µM. The “Plasma precipitation MEC” value in data set [2] (setting [4]) is greater than 1700 µmol/L.

For `COc1ccc(-c2ccc(C(=O)O)cc2)c2c1Sc1ncccc1CN[C@@H](CCCN)C(=O)N[C@@H](CCCCN)C(=O)N(C)[C@@H](Cc1c[nH]c3ccccc13)C(=O)NC2` [Example 11.00, 4-[(11S,14S,17S)-14-(4-Aminobutyl)-11-(3-aminopropyl)-17-(1H-indol-3-ylmethyl)-25-methoxy-16-methyl-12,15,18-trioxo-2-thia-4,10,13,16,19-pentazatricyclo[19.4.0.03,8]pentacosa-1(25), 3(8), 4,6,21,23-hexaen-22-yl]benzoic Acid], the half-maximal inhibitory concentration (IC50) in data set [1] (setting [3]) turned out to be 0.071 µM. Moreover, the “Plasma precipitation MEC” value in data set [2] (setting [4]) turned out to be 1720 µmol/L.

Regarding `CN1C(=O)[C@H](CCCN)NC(=O)[C@H](CCCN)NCc2cccnc2Sc2c(F)ccc(-c3ccc(C(=O)O)nc3)c2CNC(=O)[C@@H]1Cc1c[nH]c2ccccc12` [Example 14.01, 5-[(11S,14S,17S)-11,14-bis(3-Aminopropyl)-25-fluoro-17-(1H-indol-3-ylmethyl)-16-methyl-12,15,18-trioxo-2-thia-4,10,13,16,19-pentazatricyclo[19.4.0.03,8]pentacosa-1(25), 3(8), 4,6,21,23-hexaen-22-yl]pyridine-2-carboxylic Acid], the half-inhibitory concentration (IC50) in data set [1] (setting [3]) is 0.09 µM. For the same compound, in data set [2] (setting [4]), the “Plasma precipitation MEC” value worked out at 880 µmol/L.

With `CN1C(=O)[C@H](CCCCN)NC(=O)[C@H](CCCN)NCc2cccnc2Sc2cncc(-c3ccc(C(=O)O)cc3)c2CNC(=O)[C@@H]1Cc1c[nH]c2ccccc12` [Example 18.00, 4-[(11S,14S,17S)-14-(4-Aminobutyl)-1-(3-aminopropyl)-17-(1H-indol-3-ylmethyl)-16-methyl-12,15,18-trioxo-2-thia-4,10,13,16,19,24-hexazatricyclo[19.4.0.03,8]pentacosa-1(25), 3(8), 4,6,21,23-hexaen-22-yl]benzoic Acid], the concentration for half-maximal inhibition (IC50) in data set [1] (setting [3]) was 0.075 µM. For the same compound, the “Plasma precipitation MEC” value in data set [2] (setting [4]) was greater than 1760 µmol/L.

As for `CN1C(=O)[C@H](CCCCN)NC(=O)[C@H](CCCN)NCc2cccnc2Sc2c(Cl)ccc(Cl)c2CNC(=O)[C@@H]1Cc1c[nH]c2ccccc12` [Example 38 of WO2017/072062, reference compound], the concentration for half-maximal inhibition (IC50) in data set [1] (setting [5]) stood at 0.042 µM. Besides, in data set [2] (setting [6]), the “Plasma precipitation MEC” value stood at 52 µmol/L.

On to `CN1C(=O)[C@H](CCCCN)NC(=O)[C@H](CCCN)NCc2cccnc2Sc2c(Cl)ccc(-c3ccc(C(=O)O)cc3)c2CNC(=O)[C@@H]1Cc1c[nH]c2ccccc12` [Example 239 of WO2017/072062, reference compound], for which the IC50 in data set [1] (setting [5]) was 0.02 µM. In addition, the “Plasma precipitation MEC” value in data set [2] (setting [6]) worked out at 470 µmol/L.

In the case of `CN1C(=O)[C@H](CCCCN)NC(=O)[C@H](CCCN)NCc2cccnc2Sc2c(Cl)ccc(-c3ccc(OCC(=O)O)cc3)c2CNC(=O)[C@@H]1Cc1c[nH]c2ccccc12` [Example 241 of WO2017/072062, reference compound], in data set [1] (setting [3]), the IC50 turned out to be 0.05 µM. Moreover, the “Plasma precipitation MEC” value in data set [2] (setting [4]) was 95 µmol/L.
